Source: patent US11166949B2, “NURR1 activation in the treatment of metabolic disorders and as an exercise mimetic” (The Board of Regents of the University of Texas System, priority 2016, dated 2021)
“Also recorded” adds a separate entry of the source.

What was measured:
mice on HFD = assay: Glucose tolerance test and insulin tolerance test; assay type: in vivo
Protocol: Glucose uptake and insulin tolerance. Glucose tolerance test and insulin tolerance test were performed as previously described. For glucose tolerance test, mice were fasted for 6 hr and injected intraperitoneally with a glucose solution (0.15 g/ml, 158968 from Sigma-Aldrich, St. Louis, Mo.) at 1.5 g/kg body weight. Blood glucose concentrations were measured before and 15, 30, 60 and 90 min after glucose injection. For insulin tolerance test, mice […] for 6 hours were injected intraperitoneally with insulin (Human insulin 19278 from Sigma-Aldrich, St. Louis, Mo.) at 1.0 U/kg body weight. Blood glucose concentrations were measured before and 15, 30, 60 and 90 min after insulin injection.

WT mice on HFD = assay: Liver TRIG accumulation / hepatic steatosis in response to HFD; assay type: in vivo; details: for hepatic steatosis: WT mice on HFD
Protocol: (§1) Histology. WAT, BAT and liver were isolated and fixed in 4% paraformaldehyde (PFA) and processed for H&E staining. For oil red O staining, liver tissues were fixed in 4% PFA overnight, incubated in 12% sucrose for 12 hours then in 18% sucrose overnight before being cryoembedded and sectioned by the UT Southwestern Histology Core Facility. For skeletal muscle fiber analysis, tissues were frozen in liquid-nitrogen precooled isopentane, and 8 μm sections were used for H&E and fiber type staining. Plasma and tissue chemistry. Blood was collected using a 1 ml syringe coated in 0.5 M K2EDTA and serum collected by centrifugation for 20 min at 1000×g. Insulin and leptin levels were measured by ELISA. Serum triglycerides levels were measured using the Ortho Vitros 250 chemistry system. To measure triglyceride in the liver and skeletal muscle, tissue specimens were frozen immediately after isolation and pulverized in liquid nitrogen with a cell crusher. Serum and tissue triglyceride levels were measured by Mouse Metabolic Phenotyping Core Facility at University of Texas Southwestern Medical Center.

[1] = mouse, in vivo
ob/ob mice [2] = assay: AQ treatment of leptin deficient (ob/ob) mice: body weight, food intake; assay type: in vivo
Protocol: Animals. Animals were housed in a pathogen free barrier facility with a 12 hour light/dark cycle and maintained on standard chow (2916 Teklad Global). The Nurr1 transcript was amplified from Invitrogen library with Nurr1-specific primers. Nurr1 was cloned into a plasmid containing the human skeletal muscle actin promoter and human GH (hGH) poly(A) signal. Nurr1 transgenic mice (referred as Nurr1-mTg) were backcrossed with C57/BL6J mice for more than four generations. C57BL/6J, ob/ob and db/db mice were obtained from Jackson Laboratories. Male mice were used in all experiments. For HFD (60% fat calories; D12492, Research Diet), mice were fed from the age of 5 weeks to the indicated times. Tissues were taken in the fed state except when otherwise mentioned. Drug treatments. […] Isoxazolo-pyridinone 7e (IP7e) was purchased from Millipore and dissolved in Tween 80 in a 10× stock solution. To obtain the final concentration (1×; 10 mg/kg) IP7e was dissolved in saline solution (0.9% NaCl). IP7e treatment by gavage was performed once a day. Control animals received the Tween 80 dissolved saline solution (0.9% NaCl, vehicle).

Nurr1 = Nurr1 (Homo sapiens, UniProt P43354); details: cited from earlier work
Sequence of Nurr1 (P43354 whole entry): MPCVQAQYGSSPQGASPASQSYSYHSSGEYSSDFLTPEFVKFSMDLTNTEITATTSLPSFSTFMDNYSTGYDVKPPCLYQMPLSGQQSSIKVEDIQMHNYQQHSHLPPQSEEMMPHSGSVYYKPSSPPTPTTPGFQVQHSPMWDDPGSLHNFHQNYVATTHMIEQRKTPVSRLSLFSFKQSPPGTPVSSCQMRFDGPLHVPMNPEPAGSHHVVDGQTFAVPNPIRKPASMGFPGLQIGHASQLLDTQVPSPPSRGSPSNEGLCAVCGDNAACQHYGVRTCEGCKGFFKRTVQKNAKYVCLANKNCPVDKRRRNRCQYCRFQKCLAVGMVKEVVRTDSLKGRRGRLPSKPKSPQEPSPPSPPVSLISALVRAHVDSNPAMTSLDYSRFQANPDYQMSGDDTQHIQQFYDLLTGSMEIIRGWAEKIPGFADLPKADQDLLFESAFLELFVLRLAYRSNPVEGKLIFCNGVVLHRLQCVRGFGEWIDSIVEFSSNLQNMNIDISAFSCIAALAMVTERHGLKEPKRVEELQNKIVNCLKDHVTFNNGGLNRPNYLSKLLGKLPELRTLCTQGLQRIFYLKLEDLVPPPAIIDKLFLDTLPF

[3] = Metabolic cages (energy expenditure); assay type: in vivo; details: WT-HFD-AQ compared to WT mice, normalized to lean mass
ob/ob mice [4] = assay: Liver TRIG accumulation in ob/ob mice; assay type: in vivo
Protocol: as §1

[5] = test system: chloroquine-resistant Plasmodium falciparum; details: chloroquine-resistant Plasmodium falciparum malaria infections; cited from earlier work
[6] = test system: WT mice on normal chow and HFD; assay: Nurr1 agonist treatment of WT mice on normal chow and HFD: weight gain, food intake, body composition, adipose histology; assay type: in vivo; details: for weight gain: WT mice on normal chow
Protocol: Animals. Animals were housed in a pathogen free barrier facility with a 12 hour light/dark cycle and maintained on standard chow (2916 Teklad Global). The Nurr1 transcript was amplified from Invitrogen library with Nurr1-specific primers. Nurr1 was cloned into a plasmid containing the human skeletal muscle actin promoter and human GH (hGH) poly(A) signal. Nurr1 transgenic mice (referred as Nurr1-mTg) were backcrossed with C57/BL6J mice for more than four generations. C57BL/6J, ob/ob and db/db mice were obtained from Jackson Laboratories. Male mice were used in all experiments. For HFD (60% fat calories; D12492, Research Diet), mice were fed from the age of 5 weeks to the indicated times. Tissues were taken in the fed state except when otherwise mentioned. Drug treatments. […] Isoxazolo-pyridinone 7e (IP7e) was purchased from Millipore and dissolved in Tween 80 in a 10× stock solution. To obtain the final concentration (1×; 10 mg/kg) IP7e was dissolved in saline solution (0.9% NaCl). IP7e treatment by gavage was performed once a day. Control animals received the Tween 80 dissolved saline solution (0.9% NaCl, vehicle). Histology. WAT, BAT and liver were isolated and fixed in 4% paraformaldehyde (PFA) and processed for H&E staining. For oil red O staining, liver tissues were fixed in 4% PFA overnight, incubated in 12% sucrose for 12 hours then in 18% sucrose overnight before being cryoembedded and sectioned by the UT Southwestern Histology Core Facility. For skeletal muscle fiber analysis, tissues were frozen in liquid-nitrogen precooled isopentane, and 8 μm sections were used for H&E and fiber type staining. Metabolic chambers and whole-body composition analysis. Metabolic phenotyping of WT and Nurr1-mTg mice on HFD was performed using TSE metabolic chamber analysis by the Mouse Metabolic Phenotyping Core Facility at University of Texas Southwestern Medical Center. Thirteen week old mice on HFD were placed in TSE metabolic chambers for an initial 5 days acclimation period, followed by a 4.5 days experimental period with data collection. Whole-body composition parameters were measured by magnetic resonance imaging (MRI) using a Bruker Minispec mq10 system.

[7] = Serum insulin and triglyceride levels; assay type: in vivo; details: WT-HFD-AQ vs WT-HFD mice, after 10 weeks on HFD, postprandial
Protocol: Plasma and tissue chemistry. Blood was collected using a 1 ml syringe coated in 0.5 M K2EDTA and serum collected by centrifugation for 20 min at 1000×g. Insulin and leptin levels were measured by ELISA. Serum triglycerides levels were measured using the Ortho Vitros 250 chemistry system. To measure triglyceride in the liver and skeletal muscle, tissue specimens were frozen immediately after isolation and pulverized in liquid nitrogen with a cell crusher. Serum and tissue triglyceride levels were measured by Mouse Metabolic Phenotyping Core Facility at University of Texas Southwestern Medical Center.

[8] = test system: dopaminergic neurons in the substantia nigra pars compacta; details: MPTPp-treated mice, cited from earlier work
BV-2 microglia = details: cited from earlier work
NF-κB = details: NF-κB-GFP reporter cells; cited from earlier work
[9] = cited from earlier work
[10] = ob/ob mice on normal chow, AQ in drinking water, 4 weeks
[11] = WT-HFD-AQ compared to WT-HFD mice

## CCN(CC)Cc1cc(Nc2ccnc3cc(Cl)ccc23)ccc1O [AQ, amodiaquine]
Mice on HFD; AQ
  glucose tolerance: dramatic improvement
  insulin tolerance: dramatic improvement
WT mice on HFD; AQ
  hepatic steatosis: resistant to the hepatic steatosis; also recorded: prevents hepatic steatosis
WT mice on HFD; WT-HFD-AQ mice vs WT on HFD
  decrease in hepatic TRIG levels: 50%
[1]
  toxic effects: no toxic effects
ob/ob mice [2]; [10]
  body weight: lose weight
  weight gain: resistant to weight gain
ob/ob mice [2]; ob/ob mice, AQ 4 weeks
  food intake (chow consumed): comparable quantities; also recorded: does not affect
Nurr1; among three compounds sharing a 4-amino-7-chloroquinoline scaffold
  Nurr1 activation levels: highest activation levels
[3]
  CO2 production: significant increase
  O2 consumption: significant increase
ob/ob mice [4]; ob/ob mice treated with AQ compared to non treated mice, 4 weeks
  decrease in Tg levels (liver): 66%
ob/ob mice [4]; ob/ob mice treated with AQ, histological and biochemical analysis
  liver TRIG accumulation / hepatic steatosis: significant decrease; also recorded: recovers hepatic steatosis ob/ob mice to normal levels
[5]
  efficacy compared with chloroquine: more effective than chloroquine
[6]; WT mice on HFD, AQ in drinking water ad libitum, 10 weeks
  obesity on HFD: completely prevented obesity; also recorded: confers resistance to obesity
[6]; WT mice on HFD, AQ in drinking water, 10 weeks
  body weights: comparable to mice on normal chow
[6]; WT mice on HFD, AQ vs control mice on HFD
  food consumption / food intake: no difference; also recorded: does not affect
[6]; AQ in drinking water ad libitum, 10 weeks
  weight gain: no effect
[6]; [11]
  adipocyte size in white adipose tissue: decreases
  fat mass: significant decrease; also recorded: decreases
  lean mass composition: increase
[7]
  serum insulin levels: significantly lower
  serum triglyceride levels: significantly lower

## Clc1ccc(C(c2c[nH]c3ccccc23)c2c[nH]c3ccccc23)cc1 [C-DIM12, 1,1-bis(3′-indolyl)-1-(p-chlorophenyl) methane]
[8]; daily oral gavage
  neuroprotective activity: greatest neuroprotective activity
[8]
  suppressing activation of microglia and astrocytes: most potent compound
BV-2 microglia
  LPS-induced expression of NF-κB-regulated genes (NOS2, IL-6, CCL2): inhibited
NF-κB
  NF-κB activation: decreased

## COCCOCc1ccc(-c2cc3onc(-c4ccccc4)c3c(=O)n2C)cc1 [IP7e, Isoxazolo-pyridinone 7e]
Mice on HFD; IP7e
  glucose handling (glucose tolerance): improvement
WT mice on HFD; IP7e
  hepatic steatosis: resistant to the hepatic steatosis; also recorded: prevents hepatic steatosis
WT mice on HFD; WT-HFD-IP7e mice
  decrease in hepatic TRIG levels: 48%
Nurr1
  Nurr1-dependent transcriptional activity: potent activator
[6]; WT mice on HFD, IP7e 10 mg/kg oral gavage once a day, 5 weeks
  obesity on HFD: prevented obesity; also recorded: confers resistance to obesity
[6]; WT mice on HFD, IP7e vs control mice on HFD
  food consumption / food intake: no difference
[6]; WT mice on HFD, IP7e vs control mice on HFD, listed as IP7
  food consumption / food intake: does not affect
[6]; IP7e 10 mg/kg oral gavage once a day, 5 weeks
  weight gain: no impact

## CCN(CCO)CCCC(C)Nc1ccnc2cc(Cl)ccc12 (stereo not shown) [hydroxy-chloroquine]
[9]; high doses, individuals with type 2 diabetes without autoimmune conditions, two clinical trials
  glucose level: lowers glucose level
[9]; patients with autoimmune inflammatory arthritis, three clinical observational studies
  risk of developing diabetes: lower risk
